Assay: Sustained release evaluated by weight loss curves from TG/DTA
Assay type: physicochemical
Details: conditions a): 30° C. to 40° C. at 5° C./min, then 40° C. for 30 minutes
Protocol: The sustained release of the sustained-release drug obtained in Example 4 was evaluated by the following method. Weight loss curves were drawn from TG curves obtained using a thermogravimetry/differential thermal analysis (TG/DTA) apparatus (PerkinElmer, STA 6000) under the following conditions: conditions a) the sustained-release drug is heated from 30° C. to 40° C. at 5° C./min, followed by keeping the drug isothermally at 40° C. for 30 minutes; and conditions b) the sustained-release drug is heated from 30° C. to 50° C. at 5° C./min, followed by keeping the drug isothermally at 50° C. for 30 minutes. FIG. 6(a) (conditions a) and FIG. 6(b) (conditions b) show the obtained weight loss curves.

- release of medicinal ingredient (weight loss curve): significant volatility
Structure (SMILES): CC(C)[C@@H]1CC[C@@H](C)C[C@H]1O [L-menthol]

Source: patent publication US20210283058A1, “METHOD FOR PRODUCING SUSTAINED-RELEASE DRUG, AND SUSTAINED-RELEASE DRUG” (GUNZE LIMITED, priority 2016, published 2021)
